Results reported in patent publication US20210145838A1, “SELECTIVE PDE4D INHIBITORS AGAINST DEMYELINATING DISEASES” (Universiteit Hasselt, priority 2018, published 2021).

Experiments:
[1] = tested on: cuprizone demyelinated mice; experiment: Object location task (spatial memory) in cuprizone-demyelinated mice; format: in vivo, mouse; details: for Spatial discrimination index (d2), object location task: day 45 and 47; for Spatial memory in the object location task (D2): day 47, 3 h inter-trial-interval
Text: FIG. 11: Inhibition of PDE4 by roflumilast improves spatial memory upon cuprizone-induced demyelination—a functional measure for remyelination. Forty-two nine-weeks-old male C57bl6 mice were trained for the object location task (OLT) as described previously (Sierksma et al. 2014) (day −14−0). Subsequently, three groups were fed a 0.3% cuprizone diet for 6 weeks to induce demyelination while the control group received a regular chow diet (day 0-42). From day 40 till day 49, control (n=10) and vehicle (n=10) treated animals received a s.c. injection with a 1% DMSO in 0.5% methylcellulose solution or roflumilast (roflu 1 mg/kg (n=11) or roflu 3 mg/kg (n=11) in vehicle) twice a day. All animals were sacrificed at day 49 (A). During the last phase of the cuprizone treatment (demyelination), the OLT was performed at the 3 h inter-trial-interval at day 39.
Next, the OLT was performed during remyelination following cuprizone withdrawal, respectively at 47. […] A one sample t-test was performed to test for spatial memory (e.g. D2≠0*p<0.05; **p<0.01; ***p<0.001). […] All mice not reaching an exploration time of 4 s in either of two trials were excluded from analyses. Extreme values were excluded by means of Dixon's principles of exclusion of extreme values.
FIG. 14: Inhibition of PDE4D by Gebr32a improves spatial memory upon cuprizone-induced demyelination—a functional measure for remyelination. Eighty-eight nine-weeks-old male C57bl6 mice were trained for the object location task (OLT; n=22 per group) as described previously (Sierksma et al. 2014) (day −14−0). Subsequently, three groups were fed a 0.3% cuprizone diet for 6 weeks to induce demyelination while the control group received a regular chow diet (day 0-42). From day 40 till day 49, control and vehicle treated animals received a s.c. injection with a 1% DMSO in 0.5% methylcellulose solution or gebr32a (0.1 mg/kg or 0.3 mg/kg in vehicle) twice a day. All animals were sacrificed at day 49 (A).
Next, the OLT was performed during remyelination following cuprizone withdrawal, respectively at day 45 and 47.
A one sample t-test was performed to test for spatial memory (e.g. D2=/0; *p<0.05; **p<0.01; ***p<0.001). A one-way ANOVA with a Tukey's multiple comparison test was performed. All mice not reaching an exploration time of 4 s in either of two trials were excluded from analyses. Extreme values were calculated and excluded by means of Dixon's principles of exclusion of extreme values.
At the start of the experiment, all animals were phenotyped for baseline cognitive performance in the object location task. Afterwards, 4 groups were defined (n1=13, n2=16, n3=11, n4=11) and group 2, 3 and 4 were subjected to a 0.3% w/w cuprizone diet (Bis(cyclohexanone)-oxaldihydrazone) (Sigma-Aldrich, United States) for 42 days. […]

[2] = tested on: primary rat Schwann cells; experiment: Differentiation of primary rat Schwann cells; format: cell-based; details: Roflumilast 5 or 10 μM, BPN14770 1 or 5 μM
Method: FIG. 16: Inhibition of PDE4 by roflumilast and PDE4D by BPN induces differentiation of primary rat schwann cells. Primary rat schwann cells were isolated from p3 Wistar rats. Primary rat schwann cells were cultured onto an aligned network of electrospinned fibers and stimulated with vehicle (0.1% DMSO), the PDE4 inhibitor Roflumilast (5 μM or 10 μM) or the PDE4D inhibitor BPN (1 μM or 5 μM), both dissolved in 0.1% DMSO. Cells were fixated (IHC) or lysated (WB and qPCR) at day 14.
A: Primary rat schwann cells were stained for MBP (red) and MAG (green), both markers for Schwann cells differentiation (100.000 cells).
B: MBP and β-actin protein expression of primary rat schwann cells was analyzed using western blot (500.000 cells)
C: qPCR was conducted to evaluate changes in mRNA expression of MBP, PLP, MAG and SOX10. The expression of all these genes was increased upon PDE4 or PDE4D inhibition.
Primary rat Schwann cells were isolated from p3 Wistar rats. […] MBP and β-actin protein expression was analyzed using western blot analysis on primary rat Schwann cells (500.000 cells). […] Data were analyzed using a one-way ANOVA with Dunnett's multiple comparison test (compared to control); *p<0.05, **p<0.01, ***p<0.001. qPCR was conducted to evaluate changes in mRNA expression of MBP, PLP, MAG and SOX10.

[3] = Emetic side-effects at the remyelination-inducing dose; format: in vivo

Structure (SMILES)	Spatial discrimination index (d2), object location task ([1]; 0.1 mg/kg s.c. twice a day)	Spatial discrimination index (d2), object location task ([1]; 0.3 mg/kg s.c. twice a day)	Spatial memory in the object location task (D2) ([1]; 1 mg/kg s.c. twice a day)	Spatial memory in the object location task (D2) ([1]; 3 mg/kg s.c. twice a day)	MBP and MAG protein expression (IHC) ([2]; day 14)	mRNA expression of MBP, MAG, PLP and SOX10 (qPCR) ([2]; vs control conditions)	Emetic side-effects [3]
OC(CN1CCOCC1)Cn1ccc(-c2ccc(OC(F)F)c(OC3CCCC3)c2)n1 (stereo not shown) [Gebr32a]	restored the spatial discrimination index (d2) to a level comparable to that of the control animals	restored the spatial discrimination index (d2) to a level comparable to that of the control animals					
O=C(Nc1c(Cl)cncc1Cl)c1ccc(OC(F)F)c(OCC2CC2)c1 [roflumilast]			did not show a recovery of the spatial memory	significant recovery of spatial memory	increases dose-dependently	increased	displayed emetic side-effects
